The text below walks through data of patent US12414960B2, “Analogues of oleuropein and oleacein and uses thereof” (Attica Sciences Ltd., priority 2020, dated 2025).

Data set [1] in a line: Deoxyribose degradation assay (hydroxyl radical scavenging). The format is biochemical. Conditions: NS = not statistically significant. In a few lines:
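Hydroxyl radicals from Fenton's reaction degrade 2-deoxyribose. Scavenging is measured as inhibition of this oxidation, read spectrophotometrically as pink chromogen absorbance at 532 nm.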

Data set [2] in a line: Ferric reducing antioxidant power (FRAP) assay. The format is biochemical. The note with it: NS = not statistically significant. An excerpt: Reducing power is associated with antioxidant activity and may serve as a significant reflection of the antioxidant activity. Compounds with reducing power indicate that they are electron donors and can reduce the oxidized intermediates of lipid peroxidation processes, so that they can act as primary and secondary antioxidants.
In this assay, the yellow color of the test solution changes to various shades of green and blue depending on the reducing power of each compound. Presence of reducers causes the conversion of the Fe3+/ferricyanide complex used in this method to the ferrous form which when it reacts with iron chloride it gives a complex which absorbs at 700 nm. The higher the absorption at 700 nm, the greater the reducing capacity (FIG. 6).
The ferric reducing antioxidant capacity of the GS compounds was investigated by using the potassium ferricyanide-ferric chloride method (Tundis, Rosa et al. LWT—Food Science and Technology, 2013, 53: 370-377). Briefly, 0.2 mL of each of the GS compounds, 2.5 mL of phosphate buffer (0.2 M, pH 6.6), and 2.5 mL of potassium ferricyanide K3Fe(CN)6 (1%) were mixed and incubated at 50° C. for 20 min, to reduce ferricyanide into ferrocyanide. The reaction was stopped by adding 2.5 mL of 10% (w/v) trichloroacetic acid followed by centrifugation at 1000 rpm for 10 min. Finally, 2.5 mL of the upper layer was mixed with 2.5 mL of distilled water and 0.5 mL of FeCl3 (0.1%) and the absorbance was measured at 700 nm.

Data set [3] relates to MDA-MB-231 triple negative breast cancer cells. The data set is described as follows: XTT cell growth assay, MDA-MB-231. Format: cell-based, human. The note with it: NS = not statistically significant; for inhibition at 50 µM: Homo sapiens, MDA-MB-231, 24 h, read-out: Effectiveness to suppress MDA-MB-231 cell growth (cell growth inhibition). The method in brief: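 Cells grown 24 h in DMEM, then exposed 24 h to 5, 10 and 50 μM compound in serum-free DMEM. Viability read by XTT reduction to formazan after 4 h, absorbance at 450 nm with 630 nm reference; serum-free DMEM alone as negative control.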
Background: Formazan colour is commonly taken as a measure of viable cells.

The next data set deals with HepG2 liver cancer cells. The data set is described as follows: XTT cell growth assay, HepG2. Conditions: NS = not statistically significant; for inhibition at 50 µM: Homo sapiens, HepG2, 24 h, read-out: Effectiveness to suppress HepG2 cell growth (cell growth inhibition). Format: cell-based, human. An excerpt:
The XTT assay is used to measure cellular metabolic activity as an indicator of cell viability, proliferation and cytotoxicity. This non-radioactive, colorimetric assay system was first described by Scudiero, et al. in 1988 (Paull, Kenneth D. et al., J Heterocycl Chem, 1988, 25: 911-914; Scudiero, Dominic A. et al., Cancer Res, 1988, 48: 4827-4833) and improved in subsequent years by several other investigators (Weislow, Owen S. et al., J Natl Cancer Inst, 1989, 81(8): 577-586; Roehm, N. W. et al., J Immunol Methods, 1991, 142: 257-265).
The XTT assay is based on the reduction of a yellow tetrazolium salt (sodium 3′-[1-(phenylaminocarbonyl)-3,4-tetrazolium]-bis (4-methoxy6-nitro) benzene sulfonic acid hydrate or XTT) to an orange formazan dye by metabolically active cells (FIG. 8). The formazan dye formed is soluble in aqueous solutions and is directly quantified using a scanning multiwell spectrophotometer (ELISA reader). An increase in number of living cells results in an increase in the overall activity of mitochondrial dehydrogenases in the sample. This increase directly correlates to the amount of orange formazan formed, as monitored by the absorbance. Reduced number of living cells leads to reduced metabolism of quaternary salt and therefore reduced absorption.
Cell viability was assessed using the XTT assay kit (Roche, Mannheim, Germany) as described previously (Kouka, Paraskevi et al., Oxid Med Cell Longev. 2019, Article ID 1870965). Briefly, cancer cells per well were cultured in a 96-well plate in Dulbecco's modified Eagle's medium (DMEM). Following a 24 h incubation, 5, 10 and 50 μM of the tested GS compound was diluted in a serum-free DMEM and administered for 24 h. Subsequently, 50 μL of the XTT reagent (50:1) was added to each well. After 4 h of incubation, the absorbance was monitored at 450 nm and also at 630 nm as a reference wavelength in a BioTek ELx800 microplate reader (BioTek Instruments Inc., Winooski, VT, USA). As a negative control, samples containing serum-free DMEM only were used.
Hep G2 (or HepG2) is a human liver cancer cell line. Hep G2 is an immortal cell line which was derived from the liver tissue of an adolescent with a well-differentiated hepatocellular carcinoma. Hep G2 cells are a suitable in vitro model system for the study of polarized human hepatocytes.
The effects of exemplary compounds on cancer cell lines and one non-tumorigenic cell line (control) were investigated using a high throughput screening assay. More specifically, the effects of the GS compounds on cell growth was evaluated by the XTT assay for cell lines HepG2, HeLa, MCF7 ER+, MDA-MB-231, and MKN-45, and by the Cell Glo luminescence assay for cell lines MIA PaCa-2, HCT-116, MCF-10A, and PANC-1.

For data set [4], the system named is MCF-7 ER+ breast cancer cells. Briefly: XTT cell growth assay, MCF-7 ER+. Conditions: NS = not statistically significant; for inhibition at 50 µM: Homo sapiens, MCF7, 24 h, read-out: Effectiveness to suppress MCF7 cell growth (cell growth inhibition). Format: cell-based, human. In a few lines:
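MCF-7 ER+ cells grown 24 h in DMEM, then given 5, 10 or 50 μM compound in serum-free DMEM for 24 h. XTT reagent added for 4 h. Absorbance read at 450 nm with 630 nm reference; serum-free DMEM alone as negative control.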

For orientation: inhibition means how much of the control response was suppressed. With `C/C=C(/C=O)[C@@H](CC=O)CC(=O)OCCc1ccc(O)cc1` [GS19, (3S,4E)-4-formyl-3-(2-oxoethyl)-4-hexenoic acid 2-(4-hydroxyphenyl)ethyl ester, reference compound], in data set [1], the “Deoxyribose Degradation Assay IC50” value amounted to 31.9 μg extract/mL. In addition, the “Ferric Reducing Power Antioxidant Assay RP0.5AU” value in data set [2] was 133 μg extract/mL. Also, in data set [3], the inhibition at 50 µM came to 55%.

Consider `C/C=C(/C=O)[C@@H](CC=O)CC(=O)SCCc1ccccc1` [GS27, S-phenethyl (3S,4E)-4-formyl-3-(2-oxoethyl)hex-4-enethioate], for which, in data set [1], the “Deoxyribose Degradation Assay IC50” value is 16.4 μg extract/mL. Moreover, the inhibition at 50 µM in the data set on HepG2 liver cancer cells turned out to be 40.9%; in data set [4], 83.2%; in data set [3], 61.4%. Also, the “Effectiveness to suppress MCF7 cell growth (cell growth inhibition)” value in data set [4] (50 uM, 24 h) is recorded as “best efficacy”.

Regarding `C/C=C1/[C@H](OC2OC(CO)C(O)C(O)C2O)OC=C(C(=O)O)[C@H]1CC(=O)OCCc1ccc(O)c(O)c1` (stereo in doubt) [GS6, (2S,4S,E)-4-(2-(3,4-dihydroxyphenethoxy)-2-oxoethyl)-3-ethylidene-2{[(2R,3S,4R,5R,6S)-3,4,5-trihydroxy-6-(hydroxymethyl)tetrahydro-2H-pyran-2-yl]oxy}-3,4dihydro-2H-pyran-5-carboxylic acid], in data set [1], the “Deoxyribose Degradation Assay IC50” value was determined as 41.9 μg extract/mL. Also, the “Ferric Reducing Power Antioxidant Assay RP0.5AU” value in data set [2] amounted to 36 μg extract/mL. Further, the values for the inhibition at 50 µM in data set [4] and in data set [3] were 24.8% and 45.3%, respectively.

For `C/C=C(/C=O)[C@@H](CC=O)CC(=O)OCCOc1ccccc1` [GS24, (3S,4E)-4-formyl-3-(2-oxoethyl)-4-hexenoic acid 2-phenoxyethyl ester], the “Deoxyribose Degradation Assay IC50” value in data set [1] worked out at 16.1 μg extract/mL. Further, the values for the inhibition at 50 µM (in the data set with HepG2 liver cancer cells; in data set [4]; in data set [3]) were 57.9%, 60.5% and 80.5%, respectively. Also, the “Effectiveness to suppress MDA-MB-231 cell growth (cell growth inhibition)” value in data set [3] (50 uM, 24 h) was “highest suppressive activity”.

Take `C/C=C(/C=O)[C@@H](CC=O)CC(=O)OCCCCCCCCCCCCCCCC` [GS26, (3S,4E)-4-formyl-3-(2-oxoethyl)-4-hexenoic acid hexadecyl ester]: the “Deoxyribose Degradation Assay IC50” value in data set [1] was 21.3 μg extract/mL. Moreover, the inhibition at 50 µM was 50% in the data set on HepG2 liver cancer cells, 61% in data set [4] and 47.6% in data set [3].

On to `C/C=C(/C=O)[C@@H](CC=O)CC(=O)OCCc1ccc(O)c(O)c1` [GS17, (3S,4E)-4-formyl-3-(2-oxoethyl)-4-hexenoic acid 2-(3,4-dihydroxyphenyl)ethyl ester, reference compound], for which the “Deoxyribose Degradation Assay IC50” value in data set [1] was found to be 21.7 μg extract/mL. Moreover, the “Ferric Reducing Power Antioxidant Assay RP0.5AU” value in data set [2] is listed as 4.48 μg extract/mL. In addition, the inhibition at 50 µM worked out at 35.2% in data set [4] and 47.6% in data set [3].

Turning to `C/C=C1/[C@H](O[C@@H]2O[C@H](CO)[C@@H](O)[C@H](O)[C@H]2O)OC=C(C(=O)OC)[C@H]1CC(=O)OCCc1ccc(O)c(O)c1` [GS1, oleuropein], the “Deoxyribose Degradation Assay IC50” value in data set [1] is on record as 80.8 μg extract/mL. Besides, in data set [2], the “Ferric Reducing Power Antioxidant Assay RP0.5AU” value is recorded as 35 μg extract/mL. Also, the inhibition at 50 µM in data set [3] was found to be 48.3%.

As for `C/C=C(/C=O)[C@@H](CC=O)CC(=O)OCCCSC` [GS28, (3S,4E)-4-formyl-3-(2-oxoethyl)-4-hexenoic acid 3-(methylthio)propyl ester], the “Deoxyribose Degradation Assay IC50” value in data set [1] came out at 12.3 μg extract/mL. Besides, the “Effectiveness to suppress HepG2 cell growth (cell growth inhibition)” value with HepG2 liver cancer cells (50 uM, 24 h) was “best efficacy”. The inhibition at 50 µM in the data set on HepG2 liver cancer cells turned out to be 69.7%; in data set [4], 48.7%; in data set [3] it was 47.8%.
